Source: ChEMBL document CHEMBL1201862, “PubChem BioAssay data set” (2004)
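Method: 48-hour compound exposure of cells in 96-well plates, five concentrations, linear interpolation of endpoints. The concentration for 50% growth inhibition is given as GI50.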 Active and inactive are the calls of the source. No stated cut-off is given here; in the data, active = GI50 up to about 1.1 µM and inactive = higher.

What was measured:
Assay in all cases: NCI anticancer screen, dose series, 48 h
[1] = test system: SF-268
[2] = test system: U-251
[3] = test system: HCT-15
[4] = test system: NCI-H460
[5] = test system: RXF 393
[6] = test system: NCI-H23
[7] = test system: K562
[8] = test system: IGROV-1
[9] = test system: A549
[10] = test system: HCT-116
[11] = test system: SN12C
[12] = test system: SK-MEL-5
[13] = test system: MOLT-4
[14] = test system: HL-60
[15] = test system: CCRF-CEM
[16] = test system: SF-539
[17] = test system: OVCAR-4
[18] = test system: NCI/ADR-RES

Row | Compound | GI50 [1] | GI50 [2] | GI50 [3] [µM] | GI50 [4] | GI50 [5] | GI50 [6] | GI50 [7] | GI50 [8] | GI50 [9] | GI50 [10] | GI50 [11] | GI50 [12] | GI50 [13] | GI50 [14] | GI50 [15] | GI50 [16] | GI50 [17] | GI50 [18]
1 | COc1cc(/C=C/C2=C(C#N)C(=O)OC2(C)C)ccc1O | 46.6 µM (inactive) | 17.4 µM (inactive) | 28 | 38.9 µM (inactive) | 36.9 µM (inactive) | > 100 µM (inactive) | 29.1 µM (inactive) | > 100 µM (inactive) | > 100 µM (inactive) | 37.9 µM (inactive) | 55 µM (inactive) | > 100 µM (inactive) | > 100 µM (inactive) | 22.4 µM (inactive) | 13.3 µM (inactive) | – | – | –
2 | O=C1C2Cc3ccccc3CN2C(=O)N1CN1CCCCC1 (stereo unspecified) | > 100 µM (inactive) | > 100 µM (inactive) | 43.6 | > 100 µM (inactive) | – | > 100 µM (inactive) | > 100 µM (inactive) | > 100 µM (inactive) | > 100 µM (inactive) | – | > 100 µM (inactive) | > 100 µM (inactive) | > 100 µM (inactive) | 26.6 µM (inactive) | 43.4 µM (inactive) | > 100 µM (inactive) | > 100 µM (inactive) | –
3 | COc1ccc(Sc2ccccc2N)cc1 | 43.1 µM (inactive) | 19 µM (inactive) | 37 | 52.5 µM (inactive) | 25.5 µM (inactive) | 43.6 µM (inactive) | 41.6 µM (inactive) | 65.2 µM (inactive) | 55 µM (inactive) | 49 µM (inactive) | 33.1 µM (inactive) | 22.3 µM (inactive) | 26.9 µM (inactive) | 18.8 µM (inactive) | 14.4 µM (inactive) | 29.6 µM (inactive) | 34.8 µM (inactive) | –
4 | Cc1c(N=NN(C)C)cc[n+]([O-])c1C | > 100 µM (inactive) | > 100 µM (inactive) | > 100 | > 100 µM (inactive) | > 100 µM (inactive) | > 100 µM (inactive) | > 100 µM (inactive) | > 100 µM (inactive) | > 100 µM (inactive) | > 100 µM (inactive) | > 100 µM (inactive) | > 100 µM (inactive) | > 100 µM (inactive) | > 100 µM (inactive) | > 100 µM (inactive) | > 100 µM (inactive) | > 100 µM (inactive) | > 100 µM (inactive)
5 | COc1cc2c(cc1OC)-c1c(cnn1C1OC(COC(C)=O)C(OC(C)=O)C(OC(C)=O)C1OC(C)=O)CC2 (stereo unspecified) | > 100 µM (inactive) | 34.1 µM (inactive) | > 100 | > 100 µM (inactive) | – | > 100 µM (inactive) | 33 µM (inactive) | > 100 µM (inactive) | > 100 µM (inactive) | > 100 µM (inactive) | – | > 83.4 µM (inactive) | > 81.5 µM (inactive) | 11 µM (inactive) | 28.6 µM (inactive) | > 100 µM (inactive) | > 100 µM (inactive) | –
6 | Nc1nnc(N)n1NC(=O)C(=O)Nc1ccc([N+](=O)[O-])cc1 | > 100 µM (inactive) | > 100 µM (inactive) | > 100 | > 100 µM (inactive) | > 100 µM (inactive) | > 100 µM (inactive) | 98.9 µM (inactive) | > 100 µM (inactive) | > 100 µM (inactive) | > 100 µM (inactive) | > 100 µM (inactive) | > 100 µM (inactive) | > 100 µM (inactive) | > 100 µM (inactive) | > 100 µM (inactive) | > 100 µM (inactive) | > 100 µM (inactive) | –
7 | COc1ccc(C2C(C(=O)O)=C(COC(C)=O)Oc3cc4c(cc32)OCO4)cc1 (stereo unspecified) | – | > 100 µM (inactive) | > 100 | > 100 µM (inactive) | > 100 µM (inactive) | > 100 µM (inactive) | > 100 µM (inactive) | > 100 µM (inactive) | > 100 µM (inactive) | > 100 µM (inactive) | > 100 µM (inactive) | > 100 µM (inactive) | > 100 µM (inactive) | > 100 µM (inactive) | > 100 µM (inactive) | – | > 100 µM (inactive) | –
8 | Nc1nn(CC(O)CO)c(=O)s1 (stereo unspecified) | > 100 µM (inactive) | > 100 µM (inactive) | > 100 | > 100 µM (inactive) | > 100 µM (inactive) | > 100 µM (inactive) | > 100 µM (inactive) | > 100 µM (inactive) | > 100 µM (inactive) | > 100 µM (inactive) | > 100 µM (inactive) | > 100 µM (inactive) | > 100 µM (inactive) | > 100 µM (inactive) | > 100 µM (inactive) | > 100 µM (inactive) | > 100 µM (inactive) | –
9 | CCCNC(/C=C/[Si](C)(C)C)CO.CCCNCC(O)/C=C/[Si](C)(C)C (stereo unspecified) | – | > 100 µM (inactive) | > 100 | > 100 µM (inactive) | 95.7 µM (inactive) | > 100 µM (inactive) | > 100 µM (inactive) | > 100 µM (inactive) | > 100 µM (inactive) | > 100 µM (inactive) | > 100 µM (inactive) | > 100 µM (inactive) | 10 µM (inactive) | > 100 µM (inactive) | > 100 µM (inactive) | > 100 µM (inactive) | – | –
10 | N/C(=N\O)N/N=C\c1cc([N+](=O)[O-])cc([N+](=O)[O-])c1O | 62.1 µM (inactive) | 10.5 µM (inactive) | 6.14 | 2.76 µM (inactive) | > 100 µM (inactive) | 28.8 µM (inactive) | 5.26 µM (inactive) | – | 8.51 µM (inactive) | 4.92 µM (inactive) | 24.2 µM (inactive) | 9.42 µM (inactive) | 10.2 µM (inactive) | 3.36 µM (inactive) | 6.61 µM (inactive) | 18.4 µM (inactive) | > 96.2 µM (inactive) | > 26 µM (inactive)
11 | N#C/C(=C\c1cccc(O)c1O)C(N)=O | 37.9 µM (inactive) | 61.4 µM (inactive) | 57.8 | 29.4 µM (inactive) | 3.22 µM (inactive) | 34.8 µM (inactive) | 38.6 µM (inactive) | 93.1 µM (inactive) | 65.3 µM (inactive) | 34.5 µM (inactive) | 45.6 µM (inactive) | – | 35.9 µM (inactive) | 15.5 µM (inactive) | 14.1 µM (inactive) | 34 µM (inactive) | 62.4 µM (inactive) | –
12 | C/C([O-])=C(/c1nc(-c2ccc([N+](=O)[O-])o2)no1)[n+]1cc(C)ccc1C | 20.3 µM (inactive) | 8.11 µM (inactive) | 7.03 | 4.62 µM (inactive) | 18.7 µM (inactive) | 12.1 µM (inactive) | 0.692 µM (active) | 29 µM (inactive) | 15 µM (inactive) | 6.25 µM (inactive) | 13.6 µM (inactive) | 10.6 µM (inactive) | > 100 µM (inactive) | – | 1.53 µM (inactive) | 4.99 µM (inactive) | 25.1 µM (inactive) | 35 µM (inactive)
13 | CCCCOP1(=O)C=CC(Cl)=C(C)C1 (stereo unspecified) | 28.1 µM (inactive) | > 10 µM (inactive) | 13.1 | 29.8 µM (inactive) | – | > 10 µM (inactive) | 3.28 µM (inactive) | – | > 100 µM (inactive) | 21.2 µM (inactive) | 20 µM (inactive) | – | 3.83 µM (inactive) | 16.1 µM (inactive) | 4.11 µM (inactive) | 18.5 µM (inactive) | 25.2 µM (inactive) | –
14 | COC1C=CC(O)C(CO)O1 (stereo unspecified) | – | > 100 µM (inactive) | > 100 | > 100 µM (inactive) | > 100 µM (inactive) | > 100 µM (inactive) | > 100 µM (inactive) | > 100 µM (inactive) | > 100 µM (inactive) | > 100 µM (inactive) | > 100 µM (inactive) | > 100 µM (inactive) | > 100 µM (inactive) | > 100 µM (inactive) | > 100 µM (inactive) | > 100 µM (inactive) | > 100 µM (inactive) | –
15 | COc1cc(C2c3cc4c(cc3[C@@H](Nc3cccc(C(C)=O)c3)C3COC(=O)[C@H]23)OCO4)cc(OC)c1O (stereo partly specified) | 0.577 µM (active) | 0.245 µM (active) | 0.307 | < 0.01 µM (active) | 0.762 µM (active) | 0.264 µM (active) | 0.536 µM (active) | 3.03 µM (inactive) | < 0.0184 µM (active) | 0.664 µM (active) | 0.405 µM (active) | 0.411 µM (active) | < 0.01 µM (active) | < 0.0327 µM (active) | 0.0349 µM (active) | 0.243 µM (active) | 6.17 µM (inactive) | 0.383 µM (active)
16 | CC1C[C@]2(C[C@@H](C)C(=O)O2)OC2CC3(C)C4CCC5C(C)(C)OC(=O)CC[C@@]56C[C@@]46CC[C@]3(C)C12 (stereo partly specified) | > 100 µM (inactive) | > 100 µM (inactive) | > 100 | > 100 µM (inactive) | > 100 µM (inactive) | > 100 µM (inactive) | 64.9 µM (inactive) | > 100 µM (inactive) | > 100 µM (inactive) | > 100 µM (inactive) | > 100 µM (inactive) | > 100 µM (inactive) | > 100 µM (inactive) | 69.8 µM (inactive) | > 100 µM (inactive) | > 100 µM (inactive) | > 100 µM (inactive) | –
17 | COc1cc(C2c3cc4c(cc3[C@@H](Nc3ccc(N5CCOCC5)cc3)C3COC(=O)[C@H]23)OCO4)cc(OC)c1O (stereo partly specified) | 1.07 µM (active) | 0.214 µM (active) | 0.993 | < 0.01 µM (active) | 2.3 µM (inactive) | – | 1.39 µM (inactive) | 4.01 µM (inactive) | 0.0659 µM (active) | 1.25 µM (inactive) | 0.388 µM (active) | 1.04 µM (active) | 0.0207 µM (active) | 0.0319 µM (active) | 0.136 µM (active) | 0.571 µM (active) | 9.84 µM (inactive) | 3.96 µM (inactive)
